Laboratory results published in patent publication US20210386732A1, “SEMI-SOLID ANTI-HISTAMINE COMPOSITIONS AND METHODS OF MAKING AND USING THEREOF” (SEATTLE GUMMY COMPANY, priority 2018, published 2021).

How the values were obtained:
[1] = cited from earlier work
[2] = Complex formation with β-cyclodextrin, association constant (ITC measurements for cetirizine); type: binding; conditions: beta versus alpha and gamma cyclodextrin
Description: Alpha cyclodextrin consists of a ring of 6 glucose units while beta has 7 glucose units in a ring and gamma has 8 glucose units in a ring. The ring structures form a crown. The inside of the crown is able to complex with APIs in the current application. […] Either the phenyl group or the 4-chlorophenyl group fit inside the ring structure. The inside cavity of cylcodextrins is largely hydrophobic, which is favorable for APIs' hydrophobic aromatic systems. The formation of the chelate structure is endothermically favorable due to electrostatic interactions of the pi system of the aromatic moiety with in the hydrophobic cavity and electronic interaction with the hydrogen atoms and glycidyl ether bonds. It is these electronic interactions between these systems of the cyclodextrin and the pi system that gives the favorable heat of formation. […] In one embodiment, the complexing composition consists essentially of beta-cyclodextrin.
Diphenhydramine forms complexes with cylcodextrins. The mechanism is similar to that of cetirizine. […] In one embodiment, the complexing agent comprises beta cyclodextrin, which is configured to form antihistamine complex. In some embodiments, the complexing agent comprises alpha-cyclodextrin, gamma-cyclodextrin, or a combination there. The action of coordination with diphenhydramine is similar to that of cetirizine.

[3] = cited from earlier work; remark: listed apart in the source
[4] = cited from earlier work; remark: listed apart in the source
[5] = per 1 gram of water; cited from earlier work

SMILES	association constant K(a) of the complex with β-cyclodextrin [1]	formation constant with beta cyclodextrin relative to alpha and gamma cyclodextrin [2]	association constant K(a) of the complex with α-cyclodextrin [3]	association constant K(a) of the complex with γ-cyclodextrin [4]	amount that dissolves into 1 gram of water [5]
O=C(O)COCCN1CCN(C(c2ccccc2)c2ccc(Cl)cc2)CC1 (stereo not drawn) [Cetirizine, cetirizine]	5641 ± 358 M⁻¹	nearly four times	1434 ± 60 M⁻¹	1200 ± 50 M⁻¹	–
O=C(CO)[C@@H](O)[C@H](O)[C@H](O)CO [fructose]	–	–	–	–	~4 grams
OC[C@H]1O[C@@](CO)(O[C@H]2O[C@H](CO)[C@@H](O)[C@H](O)[C@H]2O)[C@@H](O)[C@@H]1O [sucrose, O-α-D-glucopyranosyl-(1→2)-β-D-fructofuranoside]	–	–	–	–	More than 2 grams
